Experimental findings from ChEMBL document CHEMBL4304805, “Antibacterial activity of 2-amino-4-hydroxypyrimidine-5-carboxylates and binding to Burkholderia pseudomallei 2-C-methyl-d-erythritol-2,4-cyclodiphosphate synthase” (Bioorg Med Chem Lett, 2019) are described below.

For orientation: IC50 means the point on the concentration scale where inhibition reaches its midpoint.

The structures appear in SMILES notation. The source made the active and inactive calls. No cut-off for these calls is given here.

The target in test [1] is T1, 2-C-methyl-D-erythritol 2,4-cyclodiphosphate synthase (Salmonella typhimurium (strain LT2 / SGSC1412 / ATCC 700720), UniProt Q8ZMF7).
T1 sequence (Q8ZMF7 whole entry): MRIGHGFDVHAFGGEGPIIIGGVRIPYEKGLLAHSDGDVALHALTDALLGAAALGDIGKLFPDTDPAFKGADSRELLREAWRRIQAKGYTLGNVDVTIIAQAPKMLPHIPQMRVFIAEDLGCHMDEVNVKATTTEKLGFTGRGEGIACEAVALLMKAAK
Nature of the test: Inhibition of Salmonella typhimurium IspF by malachite green dye based assay. Set-up: species or system Salmonella enterica subsp. enterica serovar Typhimurium.

Test [2] concerns Burkholderia thailandensis. The test is described as follows: Antibacterial activity against Burkholderia thailandensis at 0.5 mM by Kirby Bauer disk diffusion method. It counts as functional. The note with it: read-out: DIZ.
The next test relates to Pseudomonas aeruginosa. The test is described as follows: Antibacterial activity against Pseudomonas aeruginosa at 0.5 mM by Kirby Bauer disk diffusion method. The conditions noted are these: read-out: DIZ. It counts as functional. In general terms: Agar diffusion results depend on both activity and mobility in agar.
The next test concerns Bacillus cereus. The test is described as follows: Antibacterial activity against Bacillus cereus at 0.5 mM by Kirby Bauer disk diffusion method. It counts as functional. The note with it: read-out: DIZ.
Another test concerns Escherichia coli. The test is described as follows: Antibacterial activity against Escherichia coli at 0.5 mM by Kirby Bauer disk diffusion method. Type of test: functional. The conditions noted are these: read-out: DIZ.
The subject of test [3] is Mycolicibacterium smegmatis. The test is described as follows: Antibacterial activity against Mycobacterium smegmatis at 0.5 mM by Kirby Bauer disk diffusion method. Type of test: functional. The conditions noted are these: read-out: DIZ.
The subject of another test is Klebsiella pneumoniae. Nature of the test: Antibacterial activity against Klebsiella pneumoniae at 0.5 mM by Kirby Bauer disk diffusion method. It counts as functional. The conditions noted are these: read-out: DIZ.
Another test relates to Corynebacterium xerosis. The test is described as follows: Antibacterial activity against Corynebacterium xerosis at 0.5 mM by Kirby Bauer disk diffusion method. Type of test: functional. The note with it: read-out: DIZ.
Test [4] has as its system Corynebacterium pseudodiphtheriticum. The test is described as follows: Antibacterial activity against Corynebacterium pseudodiphtheriticum at 0.5 mM by Kirby Bauer disk diffusion method. Type of test: functional. The note with it: read-out: DIZ.
In a further test the test system is Micrococcus luteus. The test is described as follows: Antibacterial activity against Micrococcus luteus at 0.5 mM by Kirby Bauer disk diffusion method. It counts as functional. The conditions noted are these: read-out: DIZ.
Test [5] deals with T2, 2-C-methyl-D-erythritol 2,4-cyclodiphosphate synthase (Burkholderia pseudomallei (strain K96243)) (UniProt Q63T71).
T2 sequence (whole entry): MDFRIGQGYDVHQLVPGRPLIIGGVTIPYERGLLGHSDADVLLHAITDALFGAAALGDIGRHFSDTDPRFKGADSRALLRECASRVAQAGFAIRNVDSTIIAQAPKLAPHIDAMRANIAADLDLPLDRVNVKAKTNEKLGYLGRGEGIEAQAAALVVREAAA
Nature of the test: Binding affinity to Burkholderia pseudomallei IspF by surface plasmon resonance analysis. For orientation: SPR reads the build-up and loss of mass on a sensor chip optically.

The compound `CCOC(=O)C1=C(C)N=c2s/c(=C\c3cc(Br)c(O)c(Br)c3)c(=O)n2C1c1cccs1` (stereo unspecified) showed an IC50 in test [1] of 37 µM.

Regarding `O=C(O)c1cnc(Nc2ccc(-c3ccncc3)cc2)nc1O`, the zone of inhibition at 500 µM in [2] worked out at 0 mm; with Pseudomonas aeruginosa, 0 mm; with Bacillus cereus, 10 mm; in the test on Escherichia coli it was 0 mm; in test [3], 0 mm; in the test on Klebsiella pneumoniae, 0 mm. In addition, the zone of inhibition at 500 µM (in the test with Corynebacterium xerosis; in test [4]; with Micrococcus luteus) was 0 mm throughout. For the same compound, in [1], it took 23.5 µM to reach half-maximal inhibition (IC50). Further, in test [5], the outcome was Active.

Regarding `CCOC(=O)c1cnc(NCCc2cccc(F)c2)nc1O`, the zone of inhibition at 500 µM (in [2]; in the test with Pseudomonas aeruginosa; with Bacillus cereus; in the test on Escherichia coli; in [3]; in the test with Klebsiella pneumoniae) was 0 mm throughout. Further, the zone of inhibition at 500 µM (with Corynebacterium xerosis; in test [4]; in the test on Micrococcus luteus) was 0 mm throughout.
